We go through 2 compounds from ChEMBL document CHEMBL5729321, “Compound exhibiting enteropeptidase inhibitory activity” (2022).

For orientation: pKi means the Ki on a negative log10 scale, so that one unit is a factor of ten.

The test deals with Enteropeptidase (Homo sapiens, UniProt P98073). Briefly: Enteropeptidase Inhibition Assay: The inhibitory activity of the enteropeptidase inhibitor synthesized using the purified Recombinant Human Enteropeptidase and the substrate Acetyl-Asp-Asp-Asp-Asp-Lys-AFC (BioVision) was measured. 7.2 ng/mL of Enteropeptidase diluted with a buffer (20 mM Tris, 50 mM NaCl, pH 7.5) in a 96 well plate (Costar), 30 μM of Acetyl-Asp-Asp-Asp-Asp-Lys-AFC, several concentrations of Enteropeptidase inhibitors (1% DMSO concentration) were dispensed such that a final volume was 100 μL, and then the enzyme reaction was carried out at 30° C. for 1 hour. At this time, 1% DMSO, a substrate and Enteropeptidase instead of the compound were dispensed onto positive control wells, and 1% DMSO and a substrate were dispensed onto negative control wells. The enzyme reaction was started using an excitation wavelength of 380 nm and an emission wavelength of 500 nm in a fluorescence spectrometer, and then the rate of increase in fluorescence (milli-units per min) between 20 and 60 minutes was measured.

pKi: −log10 of the molar value.

Sequence of Enteropeptidase (P98073 2-784 limits assumed): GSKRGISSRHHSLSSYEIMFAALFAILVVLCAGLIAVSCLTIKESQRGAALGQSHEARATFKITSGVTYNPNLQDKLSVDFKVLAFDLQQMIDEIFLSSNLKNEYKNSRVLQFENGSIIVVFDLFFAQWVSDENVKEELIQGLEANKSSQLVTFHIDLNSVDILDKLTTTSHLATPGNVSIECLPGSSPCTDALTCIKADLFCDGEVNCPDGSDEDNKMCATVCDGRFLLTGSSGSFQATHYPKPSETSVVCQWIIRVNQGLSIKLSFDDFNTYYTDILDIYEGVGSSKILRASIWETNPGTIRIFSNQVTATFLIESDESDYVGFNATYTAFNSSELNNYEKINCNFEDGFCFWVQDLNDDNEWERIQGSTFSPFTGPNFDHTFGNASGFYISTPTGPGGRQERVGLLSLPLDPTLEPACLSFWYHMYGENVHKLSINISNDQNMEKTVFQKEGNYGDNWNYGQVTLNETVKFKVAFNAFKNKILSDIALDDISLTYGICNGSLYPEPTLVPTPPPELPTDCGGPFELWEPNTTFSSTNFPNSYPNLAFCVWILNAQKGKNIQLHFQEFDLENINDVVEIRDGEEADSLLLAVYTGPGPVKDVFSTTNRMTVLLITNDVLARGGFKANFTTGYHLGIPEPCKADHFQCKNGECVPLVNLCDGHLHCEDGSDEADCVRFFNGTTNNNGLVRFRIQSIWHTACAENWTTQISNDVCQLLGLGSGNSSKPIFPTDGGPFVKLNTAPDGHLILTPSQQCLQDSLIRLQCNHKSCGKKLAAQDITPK
Sequence of Enteropeptidase (P98073 785-1019 limits assumed): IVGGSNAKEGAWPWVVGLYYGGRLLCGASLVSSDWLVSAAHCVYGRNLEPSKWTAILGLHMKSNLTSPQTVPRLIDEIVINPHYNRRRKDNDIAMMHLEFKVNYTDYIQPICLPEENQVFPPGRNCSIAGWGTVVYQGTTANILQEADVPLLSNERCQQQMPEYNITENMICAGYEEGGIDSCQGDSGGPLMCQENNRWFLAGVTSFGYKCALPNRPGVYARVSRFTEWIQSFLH

In the case of `N=C(N)c1ccc(OC(=O)c2cnc(N3CCC(C(=O)N[C@@H](CC(=O)OCc4ccccc4)C(=O)OCc4ccccc4)CC3)s2)c(F)c1`, the negative logarithm of the Ki (pKi) was 8.09. Next, `CCN(CCC(=O)O)c1ncc(C(=O)Oc2ccc(C(=N)N)cc2F)s1`: 9.17.
